We go through 1 compound from patent US11415513B2, “Method for determining the degree of sensitivity of a strain of fungus to an antifungal agent” (UNIVERSITE GRENOBLE ALPES, priority 2015, dated 2022).

Structures are written as SMILES. Values after ≈ are worked out from the molar mass of the structure shown. Starred links: 1 amine or outer side, 2 acyl side, 3 side chain; linkers in the order of their positions; H or OH if unused. Positions of bridges follow the written chain, without caps; N, C: chain ends. Non-standard residues stand in square brackets, D forms with d. Residues, ends and D or L forms follow the SMILES beside them. *: point of attachment. hTyr(3S-OH,4S-OH,3'-OSO3H) = N[C@H](C(=O)O)[C@H](O)[C@@H](O)c1ccc(O)c(OS(=O)(=O)O)c1; Orn(4R-OH,5R-OH) = O=C([C@H](C[C@@H](O)[C@@H](O)N[*:3])N[*:1])[*:2]; Pro(3S-OH,4S-Me) = C[C@H]1CN[C@H](C(=O)O)[C@H]1O; X1 = CCCCCOc1ccc(-c2cc(-c3ccc(C(=O)*)cc3)no2)cc1; Gln(3R-OH) = NC(=O)C[C@@H](O)[C@H](N)C(=O)O; Hyp = O=C(O)[C@@H]1C[C@@H](O)CN1

Test [1] concerns strain TOP of C. albicans. The test is described as follows: Etest method (MIC). In kind it is cell-based, Candida albicans. As to conditions: RPMI medium plates, 24 h at 35° C. On the procedure:
(§1) The Etest® method is a commercial test for determining the sensitivity of a strain, most frequently used routinely in clinical mycology laboratories.
(§2) The Etest® tests were performed according to the manufacturer's instructions. After distributing a standardised Mac Farland 0.5 inoculum (equivalent of […]) over plates of RPMI medium, said plates were incubated for 24 h at 35° C., with the exception of C. glabrata in which case the incubation was extended to 48 h so as to be able to determine the minimum inhibitory concentration (MIC).
(§3) The results of the MICs obtained were interpreted in accordance with the tables of the CLSI (Clinical and Laboratory Standards Institute) and/or of EUCAST (European Committee on Antimicrobial Susceptibility Testing) (Arendrup M C, Cuenca-Estrella M, Lass-Flörl C, Hope W W (2014) Breakpoints for antifungal agents: an update from EUCAST focussing on echinocandins against Candida spp and triazoles against Aspergillus spp. Drug Resist Updat 16(6):81-95. doi:10.1016/j.drup.2014.01.001) (cf. Table 2 taken from Maubon D, Garnaud C, Calandra T, et al. (2014) Resistance of Candida spp. to antifungal drugs in the ICU: where are we now? Intensive Care Med. doi: 10.1007/s00134-014-3404-7) which list the clinical thresholds (CBPs) for the most common species of yeast of the genus Candida as a function of different antifungal agents, or according to the table of epidemiological thresholds (ECVs).

The test system of test [2] is strain 13/5 of C. tropicalis. Briefly: Sensitivity test by HCA microscopy (chitin level, Calcofluor White). In kind it is cell-based, Candida tropicalis. As to conditions: 6.5 h at 30° C., SC medium. On the procedure:
(§4) The strains of Candida were incubated beforehand at 30° C. overnight in a yeast extract medium—peptone dextrose (YPD) (1% bacto peptone, 0.5% yeast extract, 2% glucose, 1.5% agar).
(§5) Yeast colonies were then removed from YPD medium plates and suspended in a 0.9% NaCl saline solution, in which the cell concentration was estimated by optical microscopy using Kova counting slides. […]
(§6) A step of acquiring images by automated fluorescence microscopy (ScanR screening station, Olympus), using a 40× lens and a CFW filter, made it possible to obtain 30 images per well so as to capture enough cells to provide statistically significant data. These images were analysed by software (ScanR analysis software, Olympus). Firstly, the background noise was processed so as to improve the contrast between the fluorescence of the yeasts and background noise. […] Segmentation of the fluorescent elements present in each of the acquired images was then performed using an algorithm predefined in the software, making it possible to determine the limit of each element on the basis of the fluorescence intensity of said element. […]
(§7) Each element then corresponding to a yeast, it was thus possible, on the basis of these elements predefined beforehand, to define the fluorescence intensity for each of the yeasts, this intensity being directly correlated with the chitin content of their wall. […]

For test [3], the system named is strain TOP of C. albicans. Described as above. In kind it is cell-based, Candida albicans. As to conditions: 6.5 h at 30° C., SC medium. The procedure: as §4, §5, §6, §7
In test [4] the test system is strain 13/5 of C. tropicalis. The test is described as follows: Etest method (MIC). In kind it is cell-based, Candida tropicalis. The note with it: RPMI medium plates, 24 h at 35° C. On the procedure: as §1, §2, §3
[5] abbreviates: vs cells in the absence of antifungal agent, concentration gradient up to 1 μg/ml.

Regarding `CCCCCOc1ccc(-c2cc(-c3ccc(C(=O)N[C@H]4C[C@@H](O)[C@@H](O)NC(=O)[C@@H]5[C@@H](O)[C@@H](C)CN5C(=O)[C@H]([C@H](O)CC(N)=O)NC(=O)[C@H]([C@H](O)[C@@H](O)c5ccc(O)c(OS(=O)(=O)O)c5)NC(=O)[C@@H]5C[C@@H](O)CN5C(=O)[C@H]([C@@H](C)O)NC4=O)cc3)no2)cc1` [micafungin] (X1-[Orn(4R-OH,5R-OH)]T[Hyp][hTyr(3S-OH,4S-OH,3'-OSO3H)][Gln(3R-OH)][Pro(3S-OH,4S-Me)]; lactam 1-C), the MIC (usually the lowest concentration that inhibits growth of the organism) was found to be 1 µg/mL (≈ 0.787 µM) in test [1] (Candida albicans) and 1.5 µg/mL (≈ 1.18 µM) in test [4] (Candida tropicalis). Further, in test [1], the “phenotype by Etest MIC, interpretation by the EUCAST and CLSI tables” value is listed as “resistant”. Also, the “phenotype of the strain with respect to the antifungal agent (HCA)” value in test [2] and in test [3] was “resistant (an increase in the chitin level having a value less than 10% or a decrease in the chitin level of less than 20% or an unchanged chitin level)” in each case. For the same compound, the “increase in the chitin level in the wall of the cells” value in test [2] (setting [5]) and in test [3] (setting [5]) was “less than 10%” throughout. The “phenotype by Etest MIC, interpretation by the CLSI table” value in test [4] is “resistant”.
